Experimental data as given in PMC5053523, “In Vitro Antibacterial Activity of Rhodanine Derivatives against Pathogenic Clinical Isolates” (PLoS ONE, 2016).
≈ marks a conversion by molar mass, not a printed value. Where two headings read alike, the source gives them in different places.

How the values were obtained:
Assay type in all cases: cell-based
[1] = test system: Escherichia coli O157:H7; assay: MIC with/without PMBN, Escherichia coli O157:H7
Method: (§1) The MIC of the rhodanines and control antibiotics, in the presence of a sub-inhibitory concentration of colistin or polymixin B nonapeptide (PMBN), against Gram-negative bacteria was evaluated as described before. The antibacterial activity of the rhodanines was further investigated against E. coli SM1411Δ acrAB, a strain that is deficient in the multidrug-resistant AcrAB efflux pump, as described before.

[2] = test system: Pseudomonas aeruginosa; assay: MIC with/without PMBN, Pseudomonas aeruginosa; conditions: Pseudomonas aeruginosa, ATCC9721
Method: as §1

[3] = test system: Klebsiella pneumoniae; assay: MIC with/without PMBN, Klebsiella pneumoniae
Method: as §1

[4] = test system: Acinetobacter baumannii; assay: MIC with/without PMBN, Acinetobacter baumannii
Method: as §1

[5] = test system: Candida albicans; assay: MIC against Candida albicans; conditions: table prints none
[6] = test system: Clostridium difficile; assay: MIC against Clostridium difficile, anaerobic broth dilution; conditions: Clostridioides difficile
Method: Clinical isolates of C. difficile were cultured on anaerobic blood agar and incubated anaerobically using container gas pack system at 37° C for 48 hours. The colonies were then suspended in pre-reduced phosphate buffered saline (PBS) and adjusted to 0.5 McFarland standard then diluted 1:300 in pre-reduced Supplemented Brain Heart Infusion broth. The bacterial suspension was then transferred to each well of 96-well plates, the drugs were added to the first row of wells in the required concentrations and serially diluted along the plates. The plates were incubated again anaerobically using container gas pack system at 37° C for 48 hours. The (MIC) recorded was the lowest concentration of the drug showing no visible growth of the bacteria.

[7] = ATCC10231, C. albicans ATCC 10231, unit from abstract, read-out: MIC
[8] = ATCC10231, C. albicans ATCC 10231, unit from abstract, read-out: MIC (second value after the slash)
[9] = C. albicans NR 29434, unit from abstract, read-out: MIC
[10] = C. albicans NR 29434, unit from abstract, read-out: MIC (second value after the slash)
[11] = C. albicans NR 29435, unit from abstract, read-out: MIC
[12] = C. albicans NR 29435, unit from abstract, read-out: MIC (second value after the slash)
[13] = C. albicans NR29437, unit from abstract, read-out: MIC
[14] = C. albicans NR29438, unit from abstract, read-out: MIC
[15] = C. albicans NR29438, unit from abstract, read-out: MIC (second value after the slash)
[16] = C. albicans NR 29446, unit from abstract, read-out: MIC
[17] = C. albicans NR 29448, unit from abstract, read-out: MIC
[18] = C. albicans NR 29449, unit from abstract, read-out: MIC
[19] = C. albicans NR 29449, unit from abstract, read-out: MIC (second value after the slash)
[20] = C. albicans NR 29453, unit from abstract, read-out: MIC
[21] = C. albicans NR 29453, unit from abstract, read-out: MIC (second value after the slash)
[22] = C. albicans NR 294436, unit from abstract, read-out: MIC
[23] = C. albicans NR 294436, unit from abstract, read-out: MIC (second value after the slash)

| MIC [5, 7] [µM] | MIC [5, 8] [µM] | MIC [5, 9] [µM] | MIC [5, 10] [µM] | MIC [5, 11] [µM] | MIC [5, 12] [µM] | MIC [5, 13] [µM] | MIC [5, 14] [µM] | MIC [5, 15] [µM] | MIC [5, 16] [µM] | MIC [5, 17] [µM] | MIC [5, 18] [µM] | MIC [5, 19] [µM] | MIC [5, 20] [µM] | MIC [5, 21] [µM] | MIC [5, 22] [µM] | MIC [5, 23] [µM] | Compound | also measured |
| --- | --- | --- | --- | --- | --- | --- | --- | --- | --- | --- | --- | --- | --- | --- | --- | --- | --- | --- |
| – | – | – | – | – | – | – | – | – | – | – | – | – | – | – | – | – | polymixin B nonapeptide [PMBN, reference compound] | MIC of PMBN ([1]; Escherichia coli O157:H7 ATCC 35150): >128 µg/mL; MIC of PMBN ([1]; Escherichia coli O157:H7 ATCC 700728): >128 µg/mL; MIC of PMBN [2]: >128 µg/mL; MIC of PMBN ([3]; Klebsiella pneumoniae ATCC BAA 1706): >128 µg/mL; MIC of PMBN ([3]; Klebsiella pneumoniae ATCC BAA 2146): >128 µg/mL; MIC of PMBN ([4]; Acinetobacter baumannii ATCC BAA747): >128 µg/mL; MIC of PMBN ([4]; Acinetobacter baumannii ATCC BAA19606): >128 µg/mL |
| 1 (≈ 0.924 µg/mL) | 1 (≈ 0.924 µg/mL) | 2 (≈ 1.85 µg/mL) | 2 (≈ 1.85 µg/mL) | 1 (≈ 0.924 µg/mL) | 2 (≈ 1.85 µg/mL) | 2 (≈ 1.85 µg/mL) | 1 (≈ 0.924 µg/mL) | 4 (≈ 3.7 µg/mL) | 1 (≈ 0.924 µg/mL) | 2 (≈ 1.85 µg/mL) | 1 (≈ 0.924 µg/mL) | 2 (≈ 1.85 µg/mL) | 1 (≈ 0.924 µg/mL) | 2 (≈ 1.85 µg/mL) | 2 (≈ 1.85 µg/mL) | 2 (≈ 1.85 µg/mL) | C[C@@H]1[C@H](O)[C@@H](C)/C=C/C=C/C=C/C=C/C=C/C=C/C=C/[C@H](O[C@@H]2O[C@H](C)[C@@H](O)[C@H](N)[C@@H]2O)C[C@@H]2O[C@](O)(C[C@@H](O)C[C@@H](O)[C@H](O)CC[C@@H](O)C[C@@H](O)CC(=O)O[C@H]1C)C[C@H](O)[C@H]2C(=O)O [Amphotericin B, amphotericin B, reference compound] | MIC ([5]; C. albicans NR 29446, unit from abstract, read-out: MIC (second value after the slash)): 1 µM (≈ 0.924 µg/mL); MIC ([5]; C. albicans NR 29448, unit from abstract, read-out: MIC (second value after the slash)): 2 µM (≈ 1.85 µg/mL) |
| – | – | – | – | – | – | – | – | – | – | – | – | – | – | – | – | – | Cc1ncc([N+](=O)[O-])n1CCO [Metronidazole, reference compound] | MIC ([6]; C. difficile HM-88): 0.25 µM (≈ 0.0428 µg/mL); MIC ([6]; C. difficile HM-745): 0.5 µM (≈ 0.0856 µg/mL); MIC ([6]; C. difficile HM-746): 0.125 µM (≈ 0.0214 µg/mL); MIC ([6]; C. difficile Isolate-1 NR-13427): 0.25 µM (≈ 0.0428 µg/mL); MIC ([6]; C. difficile Toxigenic Strain P8 NR-32888): 1 µM (≈ 0.171 µg/mL) |
| < 0.5 | 1 (≈ 0.306 µg/mL) | < 0.5 | 1 (≈ 0.306 µg/mL) | < 0.5 | > 64 | 1 (≈ 0.306 µg/mL) | < 0.5 | > 64 | > 64 | > 64 | < 0.5 | > 64 | < 0.5 | < 0.5 | < 0.5 | > 64 | OC(Cn1cncn1)(Cn1cncn1)c1ccc(F)cc1F [Fluconazole, fluconazole, reference compound] | – |
